Reference: ChEMBL document CHEMBL1130679, “Novel phosphate mimetics for the design of non-peptidyl inhibitors of protein tyrosine phosphatases” (Bioorg Med Chem Lett, 1998)

Legend:
[1] = target: T1, Tyrosine-protein phosphatase non-receptor type 1 (Homo sapiens, UniProt P18031); experiment: Inhibitory activity against protein tyrosine phosphatase 1B (PTP1B) using fluorescein diphosphate as substrate at Km concentration (20 uM)
T1 sequence (P18031 whole entry): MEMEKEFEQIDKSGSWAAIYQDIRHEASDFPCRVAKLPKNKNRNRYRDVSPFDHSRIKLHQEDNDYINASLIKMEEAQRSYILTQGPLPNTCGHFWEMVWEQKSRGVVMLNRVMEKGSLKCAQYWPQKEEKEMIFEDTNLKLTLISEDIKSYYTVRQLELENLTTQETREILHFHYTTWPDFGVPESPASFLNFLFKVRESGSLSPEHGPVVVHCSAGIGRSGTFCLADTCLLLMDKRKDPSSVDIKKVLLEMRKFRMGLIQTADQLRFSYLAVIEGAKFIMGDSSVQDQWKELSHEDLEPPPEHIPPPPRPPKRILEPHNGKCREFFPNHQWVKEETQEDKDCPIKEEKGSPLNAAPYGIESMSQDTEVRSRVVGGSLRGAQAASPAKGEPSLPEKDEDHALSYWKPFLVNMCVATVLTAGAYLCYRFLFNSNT

[2] = target: T1, Tyrosine-protein phosphatase non-receptor type 1; experiment: Binding affinity against Protein tyrosine phosphatase-1B (PTP1B)
[3] = target: T1, Tyrosine-protein phosphatase non-receptor type 1; experiment: Inhibitory activity against PTP1B as a model Protein tyrosine […] (PTP) using fluorescein diphosphate as substrate at Km concentration (20 uM) at th
[4] = target: T2, Tyrosine-protein phosphatase non-receptor type 1 (Homo sapiens) (UniProt P18031); experiment: Inhibitory activity against protein tyrosine phosphatase 1B (PTP1B) at 500 uM conc. using fluorescein diphosphate as substrate at Km concentration (20 uM)
T2 sequence (whole entry): T1 sequence (P18031 whole entry)

Row | Structure (SMILES) | IC50 [1] | inhibition [4] | other results
1 | O=S(=O)(O)C(F)(F)c1cccc(-c2ccccc2)c1 | 115 µM | – | Ki [2]: 49 µM
2 | O=C(O)C(F)(F)c1ccc2ccccc2c1 | 640 µM | – | –
3 | FC(F)(c1cccc(-c2ccccc2)c1)c1nnn[nH]1 | 195 µM | – | Ki [2]: 98 µM
4 | O=P(O)(O)OC(F)(F)c1cccc(-c2ccccc2)c1 | – | – | IC50 [3]: 15 µM
5 | O=C(O)C(F)(Oc1ccc2ccccc2c1)C(=O)O | 320 µM | – | –
6 | O=S(=O)(O)Cc1ccc2ccccc2c1 | – | 5% | –
7 | O=C(O)C(F)(F)c1cccc(-c2ccccc2)c1 | 435 µM | – | –
8 | O=P(O)(O)Cc1cccc(-c2ccccc2)c1 | – | 17% | –
9 | FC(F)(c1ccc2ccccc2c1)c1nnn[nH]1 | 230 µM | – | –
10 | O=P(O)(O)OC(F)(F)c1ccc2ccccc2c1 | 35 µM | – | –
11 | c1ccc2cc(Cc3nnn[nH]3)ccc2c1 | – | 12% | –
12 | O=C(O)Cc1cccc(-c2ccccc2)c1 | – | 10% | –
13 | O=C(O)C(F)(Oc1cccc(-c2ccccc2)c1)C(=O)O | 250 µM | – | –
14 | O=C(O)Cc1ccc2ccccc2c1 | – | 4% | –
15 | O=P(O)(O)Cc1ccc2ccccc2c1 | – | 9% | –
16 | O=S(=O)(O)Cc1cccc(-c2ccccc2)c1 | – | 10% | –
17 | c1ccc(-c2cccc(Cc3nnn[nH]3)c2)cc1 | – | 15% | –
18 | O=S(=O)(O)C(F)(F)c1ccc2ccccc2c1 | 175 µM | – | –
